Laboratory results published in PMC5418348, “Identification of a Novel Allosteric Inhibitory Site on Tryptophan Hydroxylase 1 Enabling Unprecedented Selectivity Over all Related Hydroxylases” (Frontiers in Pharmacology, 2017).
“Also recorded” adds a separate entry of the source. Read-outs that look alike come from different tables or passages of the source.

Legend:
[1] = system: BON cells; assay: LDH cell toxicity assay in BON cells; assay type: cell-based, human; conditions: Figure 5B
Method: (§1) 5-HT newly synthesized through TPH activity was assessed both in vitro and in vivo by addition of deuterium labeled substrate (deuterated tryptophan – TRP-d5) and subsequently generated deuterium labeled product (deuterated serotonin – 5HT-d4) (Figure 6A). BON (human pancreatic carcinoid) cell line was a gift from Dr. Courtney M. Townsend (University of Texas, Galveston, TX, USA) and cultured as previously described ([Tran et al., 2004]). Cells were seeded overnight in 96-well plates at 1.2 × 10^5 cells per well in 200 μL growth media containing 1% FBS, and incubated at 37°C, 5% CO2. After 24 h, cell media was exchanged for […] serum-free media. All reagents added to the cells in subsequent steps were diluted in serum-free media. Cells were treated with 25 μL of either compound or DMSO vehicle (1 % v/v) for 15 min at 37°C, 5% CO2 and then treated with 25 μL 196 mM deuterated-tryptophan (Isotec, UK) for a further 2 h at 37°C, 5% CO2. BON cell lysates were then prepared by removal of all media with subsequent addition of […] HTAB. These lysates were further analyzed for D4-5-HT content by LCMS. Cell toxicity was also assessed in BON cells using a standard lactate dehydrogenase (LDH) assay according to instructions.

[2] = system: BON (human pancreatic carcinoid) cell line; assay: BON cell assay of D4-5-HT production from deuterated tryptophan; assay type: cell-based; conditions: BON cells; for IC50: read-out: IC50 inhibition of D4-5-HT production
Method: as §1

[3] = target: T1, Human TPH-1 (Homo sapiens, UniProt P17752); assay: In vitro human TPH-1 enzyme activity assay (fluorescence); assay type: biochemical; conditions: literature ref Liu et al., 2008
T1 sequence (P17752 1-444): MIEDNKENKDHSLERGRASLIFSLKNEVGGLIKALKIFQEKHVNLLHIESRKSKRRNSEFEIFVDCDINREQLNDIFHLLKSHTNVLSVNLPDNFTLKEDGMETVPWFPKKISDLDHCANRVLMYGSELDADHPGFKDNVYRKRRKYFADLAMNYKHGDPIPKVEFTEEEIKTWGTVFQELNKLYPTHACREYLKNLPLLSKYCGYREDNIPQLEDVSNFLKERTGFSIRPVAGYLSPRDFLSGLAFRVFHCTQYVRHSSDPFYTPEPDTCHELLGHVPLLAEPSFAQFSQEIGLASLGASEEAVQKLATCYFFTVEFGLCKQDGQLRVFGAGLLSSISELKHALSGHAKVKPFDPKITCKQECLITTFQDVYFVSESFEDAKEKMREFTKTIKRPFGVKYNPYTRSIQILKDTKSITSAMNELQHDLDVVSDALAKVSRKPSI
Method: Human TPH-1 and Human TPH-2 enzyme assays were carried out at room temperature with atmosphere oxygen in a volume of 25 μL. A base buffer of 40 mM HEPES pH 7.0, 200 mM ammonium sulfate was made and stored at 4°C. On the day of assay, final concentrations of 10 μM iron ammonium sulfate, 0.1 mg mL^-1 BSA, 25 μg mL^-1 catalase, and 0.04% Chaps were added and designated as enzyme buffer. Substrate buffer was made the same way but for the addition of a final concentration of 10 mM DTT. Enzymes were diluted as follows: 1.25x = 12.5 nM TPH1 (Final = 10 nM) or 1.25x = 37.5 nM TPH2 (Final = 30 nM) in enzyme buffer. Substrates were diluted as follows: 5x = 200 μM (6R)-5,6,7,8-Tetrahydrobiopterin dihydrochloride (BH4) (Final = 40 μM) and 5x = 100 μM Tryptophan (Final = 20 μM) in substrate buffer. Compounds were serially diluted 1:1 in DMSO to 50x = 500 μM (Final = 10 μM). Assays were performed in GNF Custom Greiner Black 384-well plates. Compounds were added at 0.5 μL per well. Enzymes were added at 20 μL per well. Compounds and enzymes were pre-incubated 15 min at room temperature. Substrates were added at 5 μL per well to initiate the reaction. The plates were covered and incubated at room temperature: 30 min for TPH1 and 60 min for TPH2. The reactions were quenched with the addition of 25 μL 30% sulfuric acid.

[4] = system: TPH1; set-up: method as in Liu et al., 2008; conditions: ref Liu et al., 2008; read-out: TPH1 activity IC50 (literature); cited from earlier work
[5] = target: T2, TPH1 (104–394) (Homo sapiens, UniProt P17752); assay: Biacore surface plasma resonance binding / competition experiments; conditions: SPR, previously estimated, data not shown; read-out: KD toward TPH1
T2 construct: His6 (N, cleaved yes); made in house; host or cells: Escherichia coli BL21 Rosetta (DE3)
Method: Biosensor experiments were performed on a Biacore T100 instrument (GE Healthcare). Biotinylation and capture of TPH1 was performed by adding a volume of freshly prepared EZ-link solution (dissolved in water) to an aliquot of TPH1(104–394) in a 2:1 molar ratio and incubated on ice. After 30 min of incubation, the reaction was stopped by the addition of 100 mM of Tris pH7.5. Unreacted biotin was removed by passing the solution over a fast desalting column (Thermo scientific #89849, equilibrated with PBS, 0.5 mM TCEP) three times. Biotinylated protein was aliquoted and kept at -80°C until use. Biotinylated TPH1 (104–394) was immobilized at 22°C on a SA chip surface (GE Healthcare) equilibrated with 10 mM Hepes, 150 mM NaCl, 1 mM TCEP, 0.05% Tween20, 5% glycerol, pH7.6. Approximately 3200RU were immobilized using this procedure. A streptavidin surface served as the reference.
Binding experiments were performed at 20°C using 10 mM Hepes, 150 mM NaCl, 1 mM TCEP, 0.05% Tween20, 5% glycerol, pH7.6, 2% DMSO as running buffer. […] Using a flow rate of […], samples were injected for 120 s and dissociation was monitored for 240 s. […]

Row | Kd [5] | SMILES | LDH tox [1] | IC50 inhibition of D4-5-HT production [2] | IC50 ([2]; Figure 5B, 15 min compound then 2 h deuterated tryptophan, n = 3) | difference between literature TPH1 IC50 and the values reported here [3] | IC50 [4] | IC50 [2]
1 |  | N[C@@H](Cc1ccc(Cl)cc1)C(=O)O (racemic) [pCPA, p-chlorophenylalanine] | > 30 µM | could not be established; also recorded: not measurable | > 30 µM | approximately 50 fold | 250 µM | 
2 | 11 µM | C[C@H](O)[C@H](O)C1=Nc2c(nc(N)[nH]c2=O)NC1 [BH2] |  |  |  |  |  | 
3 | 56 µM | N[C@@H](Cc1c[nH]c2ccccc12)C(=O)O [L-Trp] |  |  |  |  |  | 
4 |  | Nc1nc(OC(c2ccc(-c3cccc(F)c3)cc2)C(F)(F)F)cc(-c2ccc(C[C@H](N)C(=O)O)cc2)n1 (stereo partly shown) [LP533401] | > 30 µM |  |  |  | 0.7 µM | 12.4 µM
